Measurements as given in patent publication US20090170897A1, “Method of Treating Neuropathic Pain” (Pfizer, Inc., priority 2004, published 2009).

Key:
[1] = molecular target: T1, CRTH2 receptor (Rattus norvegicus, UniProt Q6XKD3); assay: IC50 at rat CRTH2 receptor (rIC50)
T1 sequence (Q6XKD3 1-403): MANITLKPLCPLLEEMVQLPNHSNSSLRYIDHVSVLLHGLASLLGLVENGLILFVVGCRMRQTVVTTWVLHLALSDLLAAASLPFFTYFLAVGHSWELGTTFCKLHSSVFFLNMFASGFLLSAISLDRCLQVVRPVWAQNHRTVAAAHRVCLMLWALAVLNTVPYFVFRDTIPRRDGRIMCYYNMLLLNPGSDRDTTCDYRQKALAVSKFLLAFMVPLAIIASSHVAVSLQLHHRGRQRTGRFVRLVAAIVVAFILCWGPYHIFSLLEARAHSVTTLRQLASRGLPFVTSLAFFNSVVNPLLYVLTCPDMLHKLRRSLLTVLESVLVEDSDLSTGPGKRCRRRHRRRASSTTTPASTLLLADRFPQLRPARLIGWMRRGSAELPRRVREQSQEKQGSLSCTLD

[2] = tested on: Chronic Constriction Injury (CCI) rat model of neuropathic pain; assay: CCI-induced static allodynia (von Frey hairs, PWT); assay type: in vivo
Protocol: (§1) Male Sprague Dawley rats weighing 150-400 g obtained from Charles River (Manston, Kent, UK.) were housed in groups of 3. All animals were kept under a 12 h light/dark cycle (lights on at 07 h 00 min) with food and water ad libitum. All experiments were carried out by an observer blind to the treatments and in accordance with the Home Office Animals (Scientific Procedures) Act 1986.
(§2) The CCI of sciatic nerve was performed as previously described by Bennett and Xie (Bennett G J, Xie Y K. A peripheral mononeuropathy in rat that produces disorders of pain sensation like those seen in man. Pain:33:87-107, 1988). Animals were anaesthetised with a 2% isofluorane/O2 mixture. The right hind thigh was shaved and swabbed with 1% iodine. Animals were then transferred to a homeothermic blanket for the duration of the procedure and anaesthesia maintained during surgery via a nose cone. The skin was cut along the line of the thighbone. The common sciatic nerve was exposed at the middle of the thigh by blunt dissection through biceps femoris. About 7 mm of nerve was freed proximal to the sciatic trifurcation, by inserting forceps under the nerve and the nerve gently lifted out of the thigh. Suture was pulled under the nerve using forceps and tied in a simple knot until slight resistance was felt and then double knotted. The procedure was repeated until 4 ligatures (4-0 silk) were tied loosely around the nerve with approx 1 mm spacing. The incision was closed in layers.
(§3) Animals were habituated to wire bottom test cages prior to the assessment of allodynia. Static allodynia was evaluated by application of von Frey hairs (Stoelting, Wood Dale, Ill., USA.) in ascending order of force (0.6, 1, 1.4, 2, 4, 6, 8, 10, 15 and 26 grams) to the plantar surface of hind paws. Each von Frey hair was applied to the paw for a maximum of 6 sec, or until a withdrawal response occurred. Once a withdrawal response to a von Frey hair was established, the paw was re-tested, starting with the filament below the one that produced a withdrawal, and subsequently with the remaining filaments in descending force sequence until no withdrawal occurred. The highest force of 26 g lifted the paw as well as eliciting a response, thus represented the cut off point. Each animal had both hind paws tested in this manner. The lowest amount of force required to elicit a response was recorded as paw withdrawal threshold (PWT) in grams. Static allodynia was defined as present if animals responded to a stimulus of, or less than, 4 g, which is innocuous in naive rats (Field M J, Bramwell S, Hughes J, Singh L. Detection of static and dynamic components of mechanical allodynia in rat models of neuropathic pain: are they signalled by distinct primary sensory neurones? Pain, 1999; 83:303-11).
(§4) All the experiments were conducted blind. Static allodynia was expressed as median [LQ; UQ] and analysed by Mann Whitney U test. Dynamic allodynia and thermal hyperalgesia were expressed as arithmetic mean±SEM and analysed by ANOVA.

[3] = tested on: Carrageenan-induced thermal hyperalgesia (CITH) in the rat; assay: Carrageenan-induced thermal hyperalgesia (CITH), rat plantar test; assay type: in vivo; settings: 25 mg/kg PO
Protocol: as §1
Thermal hyperalgesia was assessed using the rat plantar test (Ugo Basile, Comerio, Italy), according to a method modified by Hargreaves et al. (1988). Briefly, rats were habituated to the apparatus that consisted of three individual Perspex boxes on a glass table. A mobile radiant heat source was located under the table and focused onto the desired paw. Paw withdrawal latencies (PWLs) were recorded three times for both hind paws of each animal, the mean of which represented baseline for left and right hind paws. The apparatus was calibrated to give a PWL of approximately 10 s in naïve rats. To prevent tissue damage of the plantar zone, a 22.5 sec cut-off was observed. Lambda carrageenan was injected intraplantarly (100 μl, 20 mg/ml) the right hind paw and baseline recordings of PWT were taken 2 hr post administration.
as §4

[4] = tested on: Streptozocin (STZ)-induced diabetes neuropathy in the rat; assay: STZ-induced static allodynia (von Frey hairs, PWT); assay type: in vivo
Protocol: as §1
(§5) Diabetes was induced by a single intraperitoneal injection of streptozotocin (50 mg/kg) freshly dissolved in 0.9% sterile saline. Streptozotocin injection induces a reproducible mechanical allodynia within 3 weeks, lasting for at least 7 weeks (Chen and Pan, (Chen S R and Pan H L. Hypersensitivity of Spinothalamic Tract Neurons Associated With Diabetic Neuropathic Pain in Rats. J Neurophysiol 87: 2726-2733, 2002).
as §3, §4

[5] = tested on: Chronic Constriction Injury (CCI) rat model of neuropathic pain; assay: CCI-induced dynamic allodynia (cotton bud, PWL); assay type: in vivo
Protocol: as §1, §2
(§6) Dynamic allodynia was assessed by lightly stroking the plantar surface of the hind paw with a cotton bud. To avoid recording general motor activity, care was taken to perform this procedure in fully habituated rats that were not active. At least two measurements were taken at each time point, the mean of which represented the paw withdrawal latency (PWL). […] A pain withdrawal response was often accompanied with repeated flinching or licking of the paw. Dynamic allodynia was considered to be present if animals responded to the cotton stimulus within 8 sec of commencing stroking (Field et al, 1999).
as §4

[6] = compound level in rat CSF after oral administration; assay type: in vivo
Protocol: Moreover the antagonist produced a long lasting anti-hyperalgesic effect in the CITH rat model. N-cyclopropyl-N-[2-methyl-1-(pyridine-3-carbonyl)-1,2,3,4-tetrahydro-quinolin-4-yl]-acetamide was dosed in the rat blood and CSF at various time points after oral administration.

[7] = tested on: Streptozocin (STZ)-induced diabetes neuropathy in the rat; assay: STZ-induced dynamic allodynia (cotton bud, PWL); assay type: in vivo
Protocol: as §1, §5, §6, §4

[8] = 25 mg/kg PO (MED), post administration
[9] = 12.5, 25 and 50 mg/kg PO, from 14 days post surgery
[10] = highest dose (50 mg/kg PO) vs gabapentin 100 mg/kg PO
[11] = highest dose (50 mg/kg PO), post dose, p<0.01 vs vehicle
[12] = 25 mg/kg PO, post compound dose
[13] = compound 25 mg/kg PO, gabapentin 100 mg/kg PO (positive control)

CC(=O)N(C1CC1)C1CC(C)N(C(=O)c2cccnc2)c2ccccc21 (stereo not drawn) [N-cyclopropyl-N-[2-methyl-1-(pyridine-3-carbonyl)-1,2,3,4-tetrahydro-quinolin-4-yl]-acetamide]
IC50 [1]: 45 nM
time of peak effect, static allodynia [2, 8]: 1 h
effect on maintenance of CCI-induced static allodynia [2, 9]: reversed the maintenance of CCI-induced static and dynamic allodynia in a dose dependent manner
MED, static allodynia ([2]; PO): 25 mg/kg
static allodynia reversal relative to gabapentin [2, 10]: curve profile comparable to gabapentin
onset of anti-allodynic effect, static allodynia [2, 11]: 30 min
effect in the contralateral paw [3]: no effect
effect on maintenance of thermal hyperalgesia (ipsilateral paw) [3]: completely reversed
paw withdrawal latency at peak effect (mean±SEM) ([3]; 2 h post administration, ipsilateral paw, vehicle 3.9±0.2): 10.1±0.6
time of peak effect, thermal hyperalgesia ([3]; post administration): 2 h
duration of anti-hyperalgesic effect ([3]; post compound administration): 5 h
duration of biologically relevant effect, STZ static allodynia ([4]; 25 mg/kg PO): up to 2 hr
time of peak effect, STZ static allodynia [4, 12]: 1 h
effect on maintenance of STZ-induced static allodynia [4, 13]: reversed
time of peak effect, dynamic allodynia [5, 8]: 1 h
effect on maintenance of CCI-induced dynamic allodynia [5, 9]: reversed the maintenance of CCI-induced static and dynamic allodynia in a dose dependent manner
MED, dynamic allodynia ([5]; PO): 25 mg/kg
dynamic allodynia effect relative to gabapentin [5, 10]: less potent but significantly different from vehicle treated CCI rats
dynamic allodynia paw withdrawal latency (mean±SEM) ([5]; highest dose (50 mg/kg PO), 2 hrs post administration, vehicle 3.5±0.7): 11.8±1.0
onset of anti-allodynic effect, dynamic allodynia [5, 11]: 30 min
blood brain barrier penetration [6]: appears to cross the blood brain barrier
duration of biologically relevant effect, STZ dynamic allodynia ([7]; 25 mg/kg PO): up to 2 hr
time of peak effect, STZ dynamic allodynia [7, 12]: 1 h
effect on maintenance of STZ-induced dynamic allodynia [7, 13]: reversed
